Data taken from patent US20230234948A1, “CYCLOPROPYL DIHYDROQUINOLINE SULFONAMIDE COMPOUNDS” (AMGEN INC., priority 2020, published 2023).

Columns and labels:
[1] = tested on: CYP3A4; assay: Human CYP 3A4 induction assay (mRNA, cryopreserved human hepatocytes); format: in vitro ADME; conditions: 10 uM test compound, 72 hours, percent of control (rifampin positive control)
Experimental: Human CYP 3A4 Induction Assay
Cryopreserved human hepatocytes were seeded in 96-well collagen coated plates at 70,000 cells per well in hepatocyte plating media (HPM, final concentrations: 1× Dulbecco's Modified Eagle's Medium, 0.1 μM dexamethasone, 10% fetal bovine serum, 1×ITS, 1×PSG) followed by incubation at 37° C. under 5% CO2 and 90% relative humidity for 2 days to allow hepatocytes to form a confluent layer. On Day 3, hepatocytes were treated with either test compound or rifampin (20 μM, positive control for CYP3A induction) prepared in hepatocyte incubation media ((HIM, final concentrations: 1× William's Medium E, 0.1 μM dexamethasone, 1×ITS, 1×PSG). Treatment was performed for 72 hours with either 2 concentrations (2 μM or 10 μM) or a range of concentrations (0.001 μM to 100 μM) of the test compound to obtain full dose-response curve. Fresh media containing the relevant concentrations of the test compound was replaced every day until the samples were processed. After 72 hours of incubation, samples were processed for mRNA analysis using bDNA technology using manufacturer's instructions (Affymetrix, Fremont, Calif.). Cell viability was tested at the end of the experiment using MTT assay kit (Roche Diagnostics, Basel, Switzerland). Data was analyzed and presented as percent of control (POC) and Emax and EC50 obtained when appropriate according to guidance from Center for Drug Evaluation and Research (CDER), 2006, Guidance for Industry, Drug Interaction Studies—Study Design, Data Analysis, and Implications for Dosing and Labeling.
Cryopreserved human hepatocytes were seeded in 96-well collagen coated plates at 70,000 cells per well in hepatocyte plating media (HPM, final concentrations: 1× Dulbecco's Modified Eagle's Medium, 0.1 μM dexamethasone, 10% fetal bovine serum, 1×ITS, 1×PSG) followed by incubation at 37° C. under 5% CO2 and 90% relative humidity for 2 days to allow hepatocytes to form a confluent layer. On Day 3, hepatocytes were treated with either test compound or rifampin (20 μM, positive control for CYP3A induction) prepared in hepatocyte incubation media ((HIM, final concentrations: 1× William's Medium E, 0.1 μM dexamethasone, 1×ITS, 1×PSG). Treatment was performed for 72 hours with either 2 concentrations (2 μM or 10 μM) or a range of concentrations (0.001 μM to 100 μM) of the test compound to obtain full dose-response curve. Fresh media containing the relevant concentrations of the test compound was replaced every day until the samples were processed. After 72 hours of incubation, samples were processed for mRNA analysis using bDNA technology using manufacturer's instructions (Affymetrix, Fremont, Calif.). Cell viability was tested at the end of the experiment using MTT assay kit (Roche Diagnostics, Basel, Switzerland). Data was analyzed and presented as percent of control (POC) and Emax and EC50 obtained when appropriate, as described in Halladay, J. et al, 2012, An “all-inclusive” 96-well cytochrome P450 induction method: Measuring enzyme activity, mRNA levels, protein levels, and cytotoxicity from one well using cryopreserved human hepatocytes, Pharmacological and Toxicological Methods, 66:270-275.
The cytochrome P450 (CYP) is a well-known superfamily of enzymes that are responsible for the oxidative and reductive metabolic transformation of medications used in clinical practice. In addition, the CYP enzymes are commonly associated with causing many clinically relevant drug-drug interactions. […]

[2] = target: T1, Human NaV1.7 (Homo sapiens, UniProt Q15858); assay: Ionworks Barracuda (IWB) automated patch clamp assay; format: cell-based; conditions: human NaV1.7 in HEK cells, population patch-clamp, state- and use-dependent voltage protocol; read-out: hNaV1.7 IWB-U IC50
T1 construct: expressed in transfected cells; host or cells: Spiking HEK cells (without Kir2.1 transfection)
T1 sequence (Q15858 whole entry): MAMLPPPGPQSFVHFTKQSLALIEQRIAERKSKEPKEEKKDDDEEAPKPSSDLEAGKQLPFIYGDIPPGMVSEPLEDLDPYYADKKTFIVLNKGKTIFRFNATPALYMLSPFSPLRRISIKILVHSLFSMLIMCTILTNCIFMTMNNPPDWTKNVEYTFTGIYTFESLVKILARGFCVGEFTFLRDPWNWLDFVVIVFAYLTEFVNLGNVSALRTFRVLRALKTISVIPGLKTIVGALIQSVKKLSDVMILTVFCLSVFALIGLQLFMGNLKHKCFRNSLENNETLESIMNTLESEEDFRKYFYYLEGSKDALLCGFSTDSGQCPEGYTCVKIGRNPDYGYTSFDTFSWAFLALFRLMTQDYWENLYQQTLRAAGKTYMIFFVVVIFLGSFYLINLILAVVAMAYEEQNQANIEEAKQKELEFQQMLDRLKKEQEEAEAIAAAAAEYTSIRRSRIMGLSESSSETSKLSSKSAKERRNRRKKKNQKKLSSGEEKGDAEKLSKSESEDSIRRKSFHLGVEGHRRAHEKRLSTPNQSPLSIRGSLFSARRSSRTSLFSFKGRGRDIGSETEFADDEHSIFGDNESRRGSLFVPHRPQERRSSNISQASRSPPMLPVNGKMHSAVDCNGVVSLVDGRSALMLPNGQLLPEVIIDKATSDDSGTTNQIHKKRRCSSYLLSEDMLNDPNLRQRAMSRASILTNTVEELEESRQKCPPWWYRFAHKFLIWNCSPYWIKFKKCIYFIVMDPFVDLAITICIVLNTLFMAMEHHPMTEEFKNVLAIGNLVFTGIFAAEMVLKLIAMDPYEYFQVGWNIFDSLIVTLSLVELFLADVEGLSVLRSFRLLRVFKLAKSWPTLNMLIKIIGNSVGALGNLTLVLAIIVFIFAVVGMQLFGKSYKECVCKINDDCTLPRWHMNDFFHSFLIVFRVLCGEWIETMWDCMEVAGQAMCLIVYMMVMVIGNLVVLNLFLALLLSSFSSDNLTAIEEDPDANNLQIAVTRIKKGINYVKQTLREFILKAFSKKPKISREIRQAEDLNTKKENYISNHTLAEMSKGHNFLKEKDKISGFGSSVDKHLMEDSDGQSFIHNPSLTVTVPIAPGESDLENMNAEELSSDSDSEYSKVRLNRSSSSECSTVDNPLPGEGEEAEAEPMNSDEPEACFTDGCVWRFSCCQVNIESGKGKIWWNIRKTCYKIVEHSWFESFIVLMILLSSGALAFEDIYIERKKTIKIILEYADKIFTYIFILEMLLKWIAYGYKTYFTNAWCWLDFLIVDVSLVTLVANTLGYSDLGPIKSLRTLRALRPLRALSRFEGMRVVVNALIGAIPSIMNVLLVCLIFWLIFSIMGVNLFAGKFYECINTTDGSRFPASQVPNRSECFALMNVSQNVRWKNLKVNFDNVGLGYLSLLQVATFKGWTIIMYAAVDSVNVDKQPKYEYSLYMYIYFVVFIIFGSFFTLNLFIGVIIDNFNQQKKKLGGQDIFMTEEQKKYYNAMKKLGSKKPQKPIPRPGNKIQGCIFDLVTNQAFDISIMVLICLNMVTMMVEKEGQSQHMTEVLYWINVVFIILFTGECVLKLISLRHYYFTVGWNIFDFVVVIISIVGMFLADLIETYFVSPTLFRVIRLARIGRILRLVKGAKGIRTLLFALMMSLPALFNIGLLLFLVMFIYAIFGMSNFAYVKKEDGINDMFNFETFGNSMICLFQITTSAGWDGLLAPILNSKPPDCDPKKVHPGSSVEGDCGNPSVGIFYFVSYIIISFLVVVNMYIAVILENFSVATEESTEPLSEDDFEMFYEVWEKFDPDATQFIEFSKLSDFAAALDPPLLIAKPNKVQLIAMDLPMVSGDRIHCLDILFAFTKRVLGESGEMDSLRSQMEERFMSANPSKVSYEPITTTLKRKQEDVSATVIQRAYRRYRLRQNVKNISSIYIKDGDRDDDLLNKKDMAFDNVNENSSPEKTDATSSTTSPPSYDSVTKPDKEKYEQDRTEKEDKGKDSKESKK
Experimental: Ionworks Barracuda (IWB) Automated Patch Clamp Assay (Same Protocol for Both Human and Mouse)
Human NaV1.7 currents were recorded in population patch-clamp mode with the IWB automated electrophysiology system (Molecular Devices, LLC, Sunnyvale, Calif.). Spiking HEK cells (without Kir2.1 transfection) were cultured and prepared for recordings as previously described for IonWorks Quattro testing^1. The external solution consisted of the following (in mM): NaCl 140, KCl 5, CaCl2 2, MgCl2 1, HEPES 10, and glucose 11, pH 7.4, with N-methyl-D-glucamine at 320 mOsmol. […] From a holding potential of −110 mV, currents were elicited by a train of 26 depolarizations of 150 ms duration to −20 mV at a frequency of 5 Hz. Cells were then clamped to −20 mV for a period of 4 minutes in the presence of a single concentration of test compound. Following this compound incubation period, cells were clamped to −110 mV for three seconds to recover unbound channels and put through the same 26 pulse voltage protocol as above. Peak inward current during the 26th pulse to −20 mV in the presence of compound was divided by the peak inward current evoked by the 26th pulse to −20 mV in the absence of compound to determine percent inhibition. Concentration-response curves of percent inhibition as a function of concentration were generated to calculate IC50 values as described in Kornecook, T. J.; Yin, R.; Altmann, S.; et al. Pharmacologic Characterization of AMG8379, a Potent and Selective Small Molecule Sulfonamide Antagonist of the Voltage-Gated Sodium Channel NaV1. 7.
The potency of the compounds of the present invention were evaluated on human NaV1.7 channels using the above described IonWorks Barracuda automated electrophysiology platform that evaluates the ability of compounds to block sodium conductance through NaV1.7 channels. A voltage-protocol that prosecutes both state-dependent as well as use-dependent inhibition was used as these modes of action are thought to be more relevant for the native state of NaV1.7 channels in pain sensing neurons in vivo.

CYP3A4 mRNA Induct Hu 10 uM POC [1] [%] | IC50 [2] [nM] | Compound
24.57 | – | COc1cc([C@@H]2C[C@H]2C(F)(F)F)c(F)cc1-n1c(=O)ccc2cc(S(=O)(=O)Nc3ccon3)c(F)cc21 (atropisomer, axis not shown; (P)) [Example 45, (P)-7-fluoro-1-(5-fluoro-2-methoxy-4-((1R,2R)-2-(trifluoromethyl)cyclopropyl)phenyl)-N-(isoxazol-3-yl)-2-oxo-1,2-dihydroquinoline-6-sulfonamide]
29.06 | 10 | COc1cc([C@@H]2C[C@H]2C(F)(F)F)ccc1-n1c(=O)ccc2cc(S(=O)(=O)Nc3ccon3)ccc21 (single isomer, unassigned) [Example 38]
38.35 | 8 | COc1cc([C@H]2C[C@@H]2C(F)(F)F)ccc1-n1c(=O)ccc2cc(S(=O)(=O)Nc3ccon3)ccc21 (single isomer, unassigned) [Example 39]

Compound | CYP3A4 mRNA Induct Hu 10 uM POC [1] [%] | IC50 [2] [nM]
(P)-1-(5-fluoro-2-methoxy-4-((1S,2S)-2-((trifluoromethoxy)methyl)cyclopropyl)phenyl)-N-(isoxazol-3-yl)-2-oxo-1,2-dihydroquinoline-6-sulfonamide [Example 33] | 139.9 | 4
